Results as given in patent publication US20050238577A1, “Isolation of epithelial cells or their biochemical contents from excreta after in vivo isotopic labeling” (The Regents of the University of California, priority 2004, published 2005).

Experiment: Tolerability of maintained 2H2O body water enrichment
Format: in vivo
Settings: 1-10% of total body water labeled, maintained for weeks or months in humans (>100 people) and experimental animals; rapid changes in enrichment prevented
Excerpt: Relatively high body water enrichments of ^2H2O (e.g., 1-10% of the total body water is labeled) may be achieved relatively inexpensively using the techniques of the invention. […] This finding in a large number of human subjects (>100 people) is contrary to previous concerns about vestibular toxicities at high doses of ^2H2O. The Applicant has discovered that as long as rapid changes in body water enrichment are prevented (e.g., by initial administration in small, divided doses), high body water enrichments of ^2H2O can be maintained with no toxicities. For example, the low expense of commercially available ^2H2O allows long-term maintenance of enrichments in the 1-5% range at relatively low expense (e.g., calculations reveal a lower cost for 2 months labeling at 2% ^2H2O enrichment, and thus 7-8% enrichment in the alanine precursor pool, than for 12 hours labeling of ^2H-leucine at 10% free leucine enrichment, and thus 7-8% enrichment in leucine precursor pool for that period).

With [2H]O[2H] [^2H2O, deuterated water] the “toxicity at maintained body water enrichment” value was “without any evidence of toxicity”.
